Experiments:
AChE-R mRNA = test: In situ hybridization of AChE-R mRNA in rat spinal cord neurons; type: in vivo; settings: 500 μg/kg i.v. daily, 7 days
Description: FIG. 17 Effect of rEN101 on AChE-R mRNA in rat spinal cord neurons. The presence of AChE-R mRNA-positive cells was determined in spinal cord section of rats that had been treated for 7 days with rEN101 (500 μg/kg. i.v., daily).
In situ hybridization: Tissues were fixed in 4% paraformaldehyde and cut into 7 μm paraffin embedded sections. Spinal cord sections were deparaffinized, rehydrated using serial ethanol dilutions and permeabilized with proteinase K (10 μg/ml at room temp.). Slides were exposed to 5′ biotinylated, fully 2′-oxymethylated AChE-R or AChE-S-specific 50-mer cRNA probes complementary to human ACHE pseudo-intron 4 or exon 6, respectively [Grisaru et al. (2001) id ibid.]. Hybridization was performed overnight at 52° C. in hybridization mixture containing 10 μg/ml probe, 50 μg/ml yeast tRNA, 50 μg/ml heparin and 50% formamide in 375 mM Na chloride, 37.5 mM Na citrate, pH 4.5. For monkey sections, the probe was constructed according to the human AChE-R sequence; for rat sections, according to the mouse sequence. Slides were washed to remove non-hybridized probe, blocked with 1% skim milk containing 0.01% Tween-20 and 2 mM levamisole, an alkaline phosphatase inhibitor used to suppress non-specific staining and incubate with streptavidin-alkaline phosphatase (Amersham Pharmacia). […] Microscope images were analyzed with Image Pro Plus 4.0 (Media Cybernetics) software.

AChE = test: Plasma cholinesterase activities in monkeys (Ellman assay, acetylthiocholine hydrolysis); type: in vivo, Cynomolgus monkey
Description: In the 12 hr following the second day administration of hEN101, monkey plasma samples were collected and stored. Plasma cholinesterase activities were measured by spectrophotometry assessing the rate of hydrolysis of acetylthiocholine (measured by the Ellman assay, which quantifies the hydrolysis of acetylthiocholine) [Ellman, G. L., et al. (1961). Biochem. Pharmacol. 7, 88-95], in the absence or presence of iso-OMPA (a selective butyrylcholinesterase, BChE, inhibitor). […] When measured in the presence of 1×10^−5M iso-OMPA, AChE activity increased within the 5 hr post-injection.

AChE-S mRNA = test: In situ hybridization of AChE-S mRNA in monkey spinal cord; type: in vivo, Cynomolgus monkey; settings: oral 0.15 and 0.50, i.v. 0.50 μg/g/day, 7 days
Description: In situ hybridization: Tissues were fixed in 4% paraformaldehyde and cut into 7 μm paraffin embedded sections. Spinal cord sections were deparaffinized, rehydrated using serial ethanol dilutions and permeabilized with proteinase K (10 μg/ml at room temp.). Slides were exposed to 5′ biotinylated, fully 2′-oxymethylated AChE-R or AChE-S-specific 50-mer cRNA probes complementary to human ACHE pseudo-intron 4 or exon 6, respectively [Grisaru et al. (2001) id ibid.]. Hybridization was performed overnight at 52° C. in hybridization mixture containing 10 μg/ml probe, 50 μg/ml yeast tRNA, 50 μg/ml heparin and 50% formamide in 375 mM Na chloride, 37.5 mM Na citrate, pH 4.5. For monkey sections, the probe was constructed according to the human AChE-R sequence; for rat sections, according to the mouse sequence. Slides were washed to remove non-hybridized probe, blocked with 1% skim milk containing 0.01% Tween-20 and 2 mM levamisole, an alkaline phosphatase inhibitor used to suppress non-specific staining and incubate with streptavidin-alkaline phosphatase (Amersham Pharmacia). Fast Red™ substrate (Roche Diagnostics) was used for detection. DAPI staining (Sigma Chemical Co., St. Louis, Mo., USA) served to visualize nuclei. Microscope images were analyzed with Image Pro Plus 4.0 (Media Cybernetics) software. […]

MG patients = test: Phase Ib clinical trial of oral hEN101 in MG patients (QMG score); type: in vivo, human; settings: for Decrease in mean total QMG score from baseline: baseline mean total score 13.2
Description: Protocol for Phase Ib Clinical Trial of MG patients using hEN101: Patients were hospitalized and pyridostigmine was discontinued for 12-18 hours before EN101 testing. Assessment of MG status was performed first at entry, then after pyridostigmine stoppage, and regularly after EN101 treatment using a Quantitative MG (QMG) score. Escalating oral doses of EN101 (10-150 μg/kg) were given in the first day (day 1) followed by a daily dose of 500 μg/kg for 3 days (days 2-4). Days 5 and 6 were washout period without pyridostigmine, and restitution of pyridostigmine occurred when it became necessary. Patients were monitored for 1 month thereafter, with three visits as out-patients.
The following parameters were used as inclusion criteria: • Class II and above, according to MGFA classification (myasthenia gravis standard clinical classification of the disease severity score); • Age 18-70; • Seropositive for AChR antibodies; • Patients under pyridostigmine (180 mg/day) treatment without concomitant immunosuppressants; • Stable for 3 months, with no PE (plasma exchange) for 6 months; • No other major or active diseases.
Evaluation of the MG status of each patient was based on the following parameters: • (a) QMG scoring (maximum value of 9), based on the measurements of: • Fatigue in each limb (4); • Fatigue of the neck (1); • Swallowing rate (1); • Power in the hands (2); • Respirometry (1). • These measurements were taken daily, 4 times per day, and averaged for days 2-6. • (b) Patient's subjective report; • (c) Vital signs, clinical chemistry, hematology, urinalysis, ECG and physical examination, recorded daily.
16 patients with stable generalized MG requiring constant AChE inhibitors (pyridostigmine) for daily function were recruited, after approval by human ethics committees of the respective hospitals involved in the present trial (Hadassah Medical Center, Jerusalem, Israel and Greater Manchester Neurosciences Center, Hope Hospital, Salford, England).

Row | Substance | AChE-R mRNA in rat spinal cord neurons (AChE-R mRNA) | Total plasma cholinesterase activity (largely serum BChE) (AChE; 12 hr following second day administration, without iso-OMPA) | Post-injection increase of plasma AChE activity (AChE; in presence of 1×10^−5M iso-OMPA, 500 μg/kg vs 150 μg/kg, more effective i.v.) | AChE-S mRNA in spinal cord (AChE-S mRNA) | Decrease in mean total QMG score from baseline (MG patients; day 2) | Decrease in mean total QMG score from baseline (MG patients; day 3) | Decrease in mean total QMG score from baseline (MG patients; day 4) | Decrease in mean total QMG score from baseline (MG patients; day 5) | Decrease in mean total QMG score from baseline (MG patients; day 6) | Vital signs, chemical chemistry, hematology, urinalysis, ECG and physical examination (MG patients; experimental period and month following discharge) | Cholinergic side effects (MG patients; human, in vivo) | Duration of improved scores following the final dose (MG patients; human, in vivo) | Serious adverse effects (MG patients; human, in vivo) | Patients with clear symptomatic improvement (MG patients; oral, 10-150 μg/kg day 1, 500 μg/kg days 2-4)
1 | 5′-CTGCGATATTTTCTTGTACC-3′ (chemistry not given here) [rEN101] | does not suppress AChE-R mRNA | – | – | – | – | – | – | – | – | – | – | – | – | –
2 | 5′-CTGCCACGTTCTCCTGCACC-3′ [hEN101] | – | generally unchanged | effectively suppressed or attenuated | no apparent reduction | 3.0 | 4.8 | 5.7 | 5.5 | 6.0 | remained unchanged | not reported | up to 72 hours | No serious adverse effects were observed | 15 out of 16

— patent US7456154B2 (priority 2001, dated 2008)
